# Data published in patent publication US9132082B2, “Compositions and methods for inhibiting gastric acid secretion” (Vecta, Ltd., priority 2005, dated 2015).
# Experiments:
# [1] = system: nocturnal gastric acid secretion; test: Clinical study: bedtime omeprazole with succinic acid one hour later, gastric pH probe; format: in vivo, human; settings: average n = 7
# Experimental: Succinic Acid was administered one hour following Omeprazole administration. Gastric pH was measured on Day 1 and 5 using a pH probe. The pH probe was inserted into the distal portion of the stomach and located 20 cm below the lower esophageal sphincter. Baseline measurements of gastric pH were performed before omeprazole administration and during the following 24 hours. Standard meals were administered during pH monitoring. Blood samples for PK analysis of Omeprazole were drawn on Day 1 and 5. After a washout period of at least 14 days, the same subjects were administered with Omeprazole 40 mg alone.
# gastric acid secretion [2] = test: 3-way crossover clinical trial of Cap-in-Cap OMP/SA versus OMP, 24 hour intra-gastric pH; format: in vivo, human; settings: OMP/SA at bedtime without food, OMP 20 mg before breakfast
# Experimental: Thirty-six (36), H. pylori negative, healthy human volunteers received OMP 20 mg/SA 300 mg or OMP 40 mg/SA 300 mg at bedtime without food formulated as Cap-in-Cap capsules and OMP 20 mg dosed on an empty stomach before breakfast. These drugs were tested in a 3-way, randomized crossover study. […] Each treatment was administered once daily, for 5 consecutive days with a washout period of 21-25 days between treatments. 24 Hour intra-gastric pH monitoring was performed following the fifth dose (day 5).
# gastric pH = test: Further clinical study: omeprazole and SA capsules co-administered at bedtime, 24 h gastric pH; format: in vivo, human; settings: 10:00 pm on empty stomach
# Experimental: In a further clinical study; healthy human volunteers were administered with Omeprazole and SA capsules which were co-administered at bed-time: Treatment T1-40 mg Omeprazole plus 600 mg SA; Treatment T2-40 mg Omeprazole plus 300 mg SA; Treatment T3-20 mg Omeprazole plus 300 mg SA. The study included gastric pH measurements on day 1 (first dose), day 3 (third dose) and day 5 (fifth dose). Study medications were administered at 10:00 pm on empty stomach and pH measurements were recorded for 24 hrs. The percentage time of gastric pH above 4 following the administration of SA and Omeprazole was calculated after the first dose, the third dose and the fifth dose.
# frog mucosa = settings: ex vivo model of frog mucosa; cited from earlier work
# gastric acid output = settings: extracted from fermented alcoholic beverages; Teyssen et al.; cited from earlier work
# gastric acid secretion [3] = test: Conscious pylorus-ligated rats: pantoprazole alone or with succinic or maleic acid; format: in vivo; settings: maleic acid 14.7 mg/kg with pantoprazole 3 mg/kg; FIG. 4
# Experimental: This experimental model permits the analysis of the effect of drugs on gastric acid secretion in conscious animals and avoids the effect of anesthesia on gastric acid secretion. […] The ligature was placed around the esophagus, the stomach removed and gastric content was collected. Following centrifugation, the gastric output and the pH of the gastric juice samples was determined.
# gastric acid secretion [4] = settings: administered after ligation of the pylorus; FIG. 5
# Experimental: The possibility that succinic acid induces gastric acid secretion via local effect on the gastric lumen was tested in animals in which sodium succinate was administered after the ligation of the pylorus.
# gastric acid secretion [5] = settings: 15 mg/kg per os, pylorus ligated 30 min later, gastric juice after 60 min; FIG. 1
# Experimental: Rats were administered (per os) with 15 mg/kg of sodium succinate (Na-SA) using gavage. 30 minutes later the rats were anesthetized with ketamine/domitor and the pylorus was ligated. Following additional 60 min, gastric juice was collected from the gastric lumen. Acid output was determined by titration with NaOH. Total acid output expressed in mEq HCl was calculated by multiplying the sample volume by the acid concentration. Results are expressed as means±SEM of 12 animals from each experimental group.
# [6] = Day 1, bedtime dosing without a meal
# [7] = Day 5, bedtime dosing without a meal
smiles,measurement,setting,value
"COc1ccc2[nH]c([S+]([O-])Cc3ncc(C)c(OC)c3C)nc2c1 (stereo not drawn) [Omeprazole, omeprazole]",2:00-4:00 AM (% time pH > 4),[1]; [6],32.72%
same,4:00-6:00 AM (% time pH > 4),[1]; [6],52.30%
same,12:00-2:00 AM (% time pH > 4),[1]; [6],29.57%
same,2:00-4:00 AM (% time pH > 4),[1]; [7],53.11%
same,4:00-6:00 AM (% time pH > 4),[1]; [7],64.94%
same,12:00-2:00 AM (% time pH > 4),[1]; [7],52.31%
same,Nighttime % time pH < 3,"gastric acid secretion [2]; 12 am-8 am, day 5",65.5%
same,Nighttime % time pH > 4,"gastric acid secretion [2]; 12 am-8 am, day 5",27.2%
same,Nighttime % time pH > 5,"gastric acid secretion [2]; 12 am-8 am, day 5",11.5%
same,24-hour % time pH < 3,gastric acid secretion [2]; day 5 (fifth dose),31.2%
same,24-hour % time pH > 4,gastric acid secretion [2]; day 5 (fifth dose),47.6%
same,24-hour % time pH > 5,gastric acid secretion [2]; day 5 (fifth dose),21.6%
same,% time with pH > 4 (nocturnal hours only),gastric pH; Fifth dose,Fifth dose: 49%
same,% time with pH > 4 (total 24 h),gastric pH; Fifth dose,Fifth dose: 64%
same,% time with pH > 4 (nocturnal hours only),gastric pH; First dose,First dose: 25%
same,% time with pH > 4 (total 24 h),gastric pH; First dose,First dose: 41%
"O=C(O)CCC(=O)O [Succinic acid, succinic acid]",proton secretion,frog mucosa,may stimulates proton secretion
same,gastric acid output in humans,gastric acid output,stimulate gastric acid output
O=C(O)CCC(=O)C(=O)O [alpha-ketoglutarate],proton secretion,frog mucosa,may stimulates proton secretion
O=C(O)CC(O)C(=O)O (stereo not drawn) [malate],proton secretion,frog mucosa,may stimulates proton secretion
O=C(O)/C=C\C(=O)O [maleic acid],inhibitory effect of pantoprazole on gastric acid secretion,gastric acid secretion [3],enhanced the inhibitory effect of pantoprazole
same,gastric acid output in humans,gastric acid output,stimulate gastric acid output
O=C([O-])CCC(=O)[O-].[Na+].[Na+] [sodium succinate],acid secretion,gastric acid secretion [4],capable of inducing acid secretion
same,gastric acid secretion (total acid output),gastric acid secretion [5],significantly enhanced gastric acid secretion
